Test results published in PubChem BioAssay (NCI).
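Five concentrations, 48 hours, 96-well plates. Abbreviation: GI50, concentration required for 50% inhibition of growth. The concentration for full growth arrest is given as TGI.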

Tests used:
Test in all cases: DTP human tumour cell line panel, 48 h
HL-60(TB) leukemia = system: HL-60(TB) leukemia
SK-MEL-2 melanoma = system: SK-MEL-2 melanoma
786-0 renal = system: 786-0 renal
UO-31 renal = system: UO-31 renal
ACHN renal = system: ACHN renal
SF-539 CNS = system: SF-539 CNS
SK-MEL-5 melanoma = system: SK-MEL-5 melanoma
M14 melanoma = system: M14 melanoma
NCI/ADR-RES ovarian = system: NCI/ADR-RES ovarian
NCI-H23 lung = system: NCI-H23 lung
SW-620 colon = system: SW-620 colon
IGROV1 ovarian = system: IGROV1 ovarian
T-47D breast = system: T-47D breast
UACC-257 melanoma = system: UACC-257 melanoma
RXF 393 renal = system: RXF 393 renal
OVCAR-8 ovarian = system: OVCAR-8 ovarian
MDA-MB-231 breast = system: MDA-MB-231 breast
U251 CNS = system: U251 CNS
UACC-62 melanoma = system: UACC-62 melanoma
HS 578T breast = system: HS 578T breast
CAKI-1 renal = system: CAKI-1 renal
PC-3 prostate = system: PC-3 prostate
MALME-3M melanoma = system: MALME-3M melanoma
SK-OV-3 ovarian = system: SK-OV-3 ovarian
DU-145 prostate = system: DU-145 prostate
A549 NSCLC = system: A549 NSCLC
TK-10 renal = system: TK-10 renal
BT-549 breast = system: BT-549 breast
SN12C renal = system: SN12C renal
SNB-75 CNS = system: SNB-75 CNS
NCI-H522 lung = system: NCI-H522 lung
CCRF-CEM leukemia = system: CCRF-CEM leukemia
MDA-MB-435 = system: MDA-MB-435
NCI-H226 lung = system: NCI-H226 lung
SNB-19 CNS = system: SNB-19 CNS
LOX IMVI melanoma = system: LOX IMVI melanoma
OVCAR-5 ovarian = system: OVCAR-5 ovarian
HCT-15 colon = system: HCT-15 colon
EKVX NSCLC = system: EKVX NSCLC
SK-MEL-28 melanoma = system: SK-MEL-28 melanoma
COLO 205 colon = system: COLO 205 colon
SF-268 CNS = system: SF-268 CNS
KM12 colon = system: KM12 colon
A498 renal = system: A498 renal
OVCAR-4 ovarian = system: OVCAR-4 ovarian
MOLT-4 leukemia = system: MOLT-4 leukemia
SF-295 CNS = system: SF-295 CNS
HCT-116 colon = system: HCT-116 colon
HOP-62 NSCLC = system: HOP-62 NSCLC
K-562 leukemia = system: K-562 leukemia
HOP-92 NSCLC = system: HOP-92 NSCLC
RPMI-8226 leukemia = system: RPMI-8226 leukemia
MCF7 breast = system: MCF7 breast
SR leukemia = system: SR leukemia
HCC-2998 colon = system: HCC-2998 colon
NCI-H460 lung = system: NCI-H460 lung
HT29 colon = system: HT29 colon
OVCAR-3 ovarian = system: OVCAR-3 ovarian

C=CCCC(=O)N1CCC(C(=O)OCC)C1=O (stereo not drawn)
TGI (HL-60(TB) leukemia): > 100 µM | TGI (SK-MEL-2 melanoma): > 100 µM | TGI (786-0 renal): > 100 µM | TGI (UO-31 renal): > 100 µM | TGI (ACHN renal): > 100 µM | TGI (SF-539 CNS): > 100 µM | TGI (SK-MEL-5 melanoma): > 100 µM | TGI (M14 melanoma): > 100 µM | TGI (NCI/ADR-RES ovarian): > 100 µM | TGI (NCI-H23 lung): > 100 µM | TGI (SW-620 colon): > 100 µM | TGI (IGROV1 ovarian): > 100 µM | TGI (T-47D breast): > 100 µM | TGI (UACC-257 melanoma): > 100 µM | TGI (RXF 393 renal): > 100 µM | TGI (OVCAR-8 ovarian): > 100 µM | TGI (MDA-MB-231 breast): > 100 µM | TGI (U251 CNS): > 100 µM | TGI (UACC-62 melanoma): > 100 µM | TGI (HS 578T breast): > 100 µM | TGI (CAKI-1 renal): > 100 µM | TGI (PC-3 prostate): > 100 µM | TGI (MALME-3M melanoma): > 100 µM | TGI (SK-OV-3 ovarian): > 100 µM | TGI (DU-145 prostate): > 100 µM | TGI (A549 NSCLC): > 100 µM | TGI (TK-10 renal): > 100 µM | TGI (BT-549 breast): > 100 µM | TGI (SN12C renal): > 100 µM | TGI (SNB-75 CNS): > 100 µM | TGI (NCI-H522 lung): > 100 µM | TGI (CCRF-CEM leukemia): > 100 µM | TGI (MDA-MB-435): > 100 µM | TGI (NCI-H226 lung): > 100 µM | TGI (SNB-19 CNS): > 100 µM | TGI (LOX IMVI melanoma): > 100 µM | TGI (OVCAR-5 ovarian): > 100 µM | TGI (HCT-15 colon): > 100 µM | TGI (EKVX NSCLC): > 100 µM | TGI (SK-MEL-28 melanoma): > 100 µM | TGI (COLO 205 colon): > 100 µM | TGI (SF-268 CNS): > 100 µM | TGI (KM12 colon): > 100 µM | TGI (A498 renal): > 100 µM | TGI (OVCAR-4 ovarian): > 100 µM | TGI (MOLT-4 leukemia): > 100 µM | TGI (SF-295 CNS): > 100 µM | TGI (HCT-116 colon): > 100 µM | TGI (HOP-62 NSCLC): > 100 µM

CCC(/C=C(C)/C=C/C(=O)c1c(O)c(-c2ccc(O)cc2)c[nH]c1=O)CO (stereo not drawn)
GI50 (HL-60(TB) leukemia): 2.83 µM | TGI (HL-60(TB) leukemia): 17.4 µM | GI50 (SK-MEL-2 melanoma): 16 µM | TGI (SK-MEL-2 melanoma): 52.2 µM | GI50 (786-0 renal): 8.1 µM | TGI (786-0 renal): 20.6 µM | GI50 (UO-31 renal): 6.74 µM | TGI (UO-31 renal): 28.7 µM | GI50 (ACHN renal): 11.9 µM | TGI (ACHN renal): 37.9 µM | GI50 (SF-539 CNS): 3.22 µM | TGI (SF-539 CNS): 26 µM | GI50 (SK-MEL-5 melanoma): 11.2 µM | TGI (SK-MEL-5 melanoma): 24.3 µM | GI50 (M14 melanoma): 12.9 µM | TGI (M14 melanoma): 26.7 µM | GI50 (NCI/ADR-RES ovarian): 21.6 µM | TGI (NCI/ADR-RES ovarian): > 100 µM | GI50 (NCI-H23 lung): 9.55 µM | TGI (NCI-H23 lung): 24.1 µM | GI50 (K-562 leukemia): 4.11 µM | TGI (K-562 leukemia): 37.4 µM | GI50 (HOP-92 NSCLC): 8.55 µM | TGI (HOP-92 NSCLC): 82.6 µM | GI50 (SW-620 colon): 10.7 µM | TGI (SW-620 colon): 26.9 µM | GI50 (IGROV1 ovarian): 6.11 µM | TGI (IGROV1 ovarian): 42.1 µM | GI50 (T-47D breast): 10.6 µM | TGI (T-47D breast): 54.2 µM | GI50 (UACC-257 melanoma): 11.3 µM | TGI (UACC-257 melanoma): 25 µM | GI50 (RXF 393 renal): 5.82 µM | TGI (RXF 393 renal): 22.2 µM | GI50 (OVCAR-8 ovarian): 8.34 µM | TGI (OVCAR-8 ovarian): > 100 µM | GI50 (MDA-MB-231 breast): 9.17 µM | TGI (MDA-MB-231 breast): 29.5 µM | GI50 (U251 CNS): 6.91 µM | TGI (U251 CNS): 23.9 µM | GI50 (UACC-62 melanoma): 10.2 µM | TGI (UACC-62 melanoma): 23.3 µM | GI50 (HS 578T breast): 2.78 µM | TGI (HS 578T breast): 36.1 µM | GI50 (RPMI-8226 leukemia): 6.89 µM | TGI (RPMI-8226 leukemia): 32.3 µM | GI50 (CAKI-1 renal): 10.5 µM | TGI (CAKI-1 renal): 47.5 µM | GI50 (PC-3 prostate): 14.3 µM | TGI (PC-3 prostate): 82.1 µM | GI50 (MALME-3M melanoma): 10.3 µM | TGI (MALME-3M melanoma): 26.4 µM | GI50 (SK-OV-3 ovarian): 23.4 µM | TGI (SK-OV-3 ovarian): 99.5 µM | GI50 (MCF7 breast): 4.35 µM | TGI (MCF7 breast): 18.9 µM | GI50 (SR leukemia): 2.43 µM | TGI (SR leukemia): 13.2 µM | GI50 (DU-145 prostate): 2.83 µM | TGI (DU-145 prostate): 12.5 µM | GI50 (A549 NSCLC): 20.7 µM | TGI (A549 NSCLC): 93.8 µM | GI50 (TK-10 renal): 20.4 µM | TGI (TK-10 renal): 80.8 µM | GI50 (SN12C renal): 11.8 µM | TGI (SN12C renal): 41.9 µM | GI50 (SNB-75 CNS): 6.11 µM | TGI (SNB-75 CNS): 24.5 µM | GI50 (NCI-H522 lung): 5.56 µM | TGI (NCI-H522 lung): 21 µM | GI50 (CCRF-CEM leukemia): 3.53 µM | TGI (CCRF-CEM leukemia): 26.7 µM | GI50 (MDA-MB-435): 4.34 µM | TGI (MDA-MB-435): 31.9 µM | GI50 (HCC-2998 colon): 13 µM | TGI (HCC-2998 colon): 25.6 µM | GI50 (NCI-H226 lung): 18 µM | TGI (NCI-H226 lung): > 100 µM | GI50 (NCI-H460 lung): 6.15 µM | TGI (NCI-H460 lung): 21.9 µM | GI50 (HT29 colon): 13.9 µM | TGI (HT29 colon): 29.2 µM | GI50 (SNB-19 CNS): 11.9 µM | TGI (SNB-19 CNS): 27.4 µM | GI50 (LOX IMVI melanoma): 9.87 µM | TGI (LOX IMVI melanoma): 21.5 µM | GI50 (OVCAR-5 ovarian): 13 µM | TGI (OVCAR-5 ovarian): 27.1 µM | GI50 (HCT-15 colon): 8.13 µM | TGI (HCT-15 colon): 22.1 µM | GI50 (EKVX NSCLC): 15.4 µM | TGI (EKVX NSCLC): 68 µM | GI50 (SK-MEL-28 melanoma): 11.8 µM | TGI (SK-MEL-28 melanoma): 24.6 µM | GI50 (OVCAR-3 ovarian): 3.8 µM | TGI (OVCAR-3 ovarian): 16.1 µM | GI50 (COLO 205 colon): 15.5 µM | TGI (COLO 205 colon): 28.8 µM | GI50 (SF-268 CNS): 6.8 µM | TGI (SF-268 CNS): 21.1 µM | GI50 (KM12 colon): 4.2 µM | TGI (KM12 colon): 16.1 µM | GI50 (A498 renal): 3.69 µM | TGI (A498 renal): 18.8 µM | GI50 (OVCAR-4 ovarian): 12 µM | TGI (OVCAR-4 ovarian): > 100 µM | GI50 (MOLT-4 leukemia): 5.84 µM | TGI (MOLT-4 leukemia): 44.2 µM | GI50 (SF-295 CNS): 10.1 µM | TGI (SF-295 CNS): 30.9 µM | GI50 (HCT-116 colon): 6.61 µM | TGI (HCT-116 colon): 19.2 µM | GI50 (HOP-62 NSCLC): 14.2 µM | TGI (HOP-62 NSCLC): 37.2 µM
